Experimental data from article PMC10907560, “Significant reduction of activity retention in the kidneys via optimized linker sequences in radiohybrid-based minigastrin analogs” (EJNMMI Research, 2024).
Where two headings read alike, the source gives them in different places.

Key:
[1] = Biodistribution at 24 h p.i. in AR42J tumor-bearing CB17-SCID mice; format: in vivo; conditions: mouse, 100 pmol, 100 pmol; for tissue to tissue ratio at 24 h: both sexes, CB17-SCID, total radioactivity
Protocol: (§1) Animal experiments were carried out according to the general animal welfare regulations in Germany (German animal protection act, in the edition of the announcement, dated 18 May 2006, as amended by Article 280 of 19 June 2020, approval no. ROB-55.2–1-2532.Vet_02-18–109 by the General Administration of Upper Bavaria) and the institutional guidelines for the care and use of animals. Therefore, CB17-SCID mice of both genders and aged 2–4 months (Charles River Laboratories International Inc., Sulzfeld, Germany) were used. After arrival at the in-house facilities, mice were allowed to acclimate for a minimum of one week before inoculation of AR42J cells. AR42J cells (6.0 × 10^6 cells per 200 μL) were suspended in a mixture (v/v = 1/1) of nutrient medium and Cultrex® Basement Membrane Matrix Type 3 (Trevigen Inc., Gaithersburg, MD, USA) and inoculated subcutaneously onto the right shoulder of CB17-SCID mice according to a previously reported protocol. Animals were excluded from the study when reaching one of the following endpoints: a weight loss higher than 20%, a tumor size above 1500 mm^3, an ulceration of the tumor, respiratory distress or change of behavior [8]. None of these criteria applied to any animal from the experiment. Neither randomization nor blinding was applied in the allocation of the experiments. Health status of the animals is specific pathogen free according to Federation of European Laboratory Animal Science Associations recommendation.
(§2) Biodistribution studies (n = 4) and µSPECT/CT imaging (n = 1) at 24 h p.i. were carried out as previously published. For all in vivo experiments, approximately 2–3 MBq (100 pmol) of the respective ^177Lu-labeled peptide were administered.
(§3) Table S2. Biodistribution data of [^177Lu]Lu-DOTA-rhCCK-70 and [^177Lu]Lu-DOTA-rhCCK-91 in selected organs at 24 h p.i. in AR42J tumor-bearing CB17-SCID mice (100 pmol each). Data are expressed as %ID/g, mean ± SD.
(§4) Table S3. Tumor-to-background ratios of [^177Lu]Lu-DOTA-rhCCK-70 and [^177Lu]Lu-DOTA-rhCCK-91 in selected organs at 24 h p.i. in AR42J tumor-bearing CB17-SCID mice (100 pmol each). Data are expressed as %ID/g, mean ± SD.

[2] = system: AR42J tumor-bearing CB17-SCID mice; assay: as above; format: in vivo; conditions: for reduction of kidney accumulation and retention compared to [177Lu]Lu-DOTA-rhCCK-18: p < 0.0001
Protocol: as §1, §2, §3, §4

[3] = Lipophilicity, n-octanol/PBS distribution coefficient logD7.4; format: physicochemical; conditions: 177Lu-labeled peptide; n-octanol/PBS (1/1), n ≥ 5
Protocol: For determination of lipophilicity, the respective ^177Lu-Labeled peptide precursor (~ 1 MBq, 10 µL in 0.04 M HCl) was added to a solution of n-octanol/PBS (1/1, v/v, 1 mL) and vigourously mixed for 3 min at room temperature (n ≥ 5). Afterwards both phases were seperated using a Biofuge 15 centrifuge (Heraus Sepatech GmbH, Osterode, Germany) at 9,000 rpm for 5 min. 200 µL aliquots of both layers were collected separately, measured in a γ-counter (Perkin Elmer, Waltham, MA, USA) and the logD7.4 value was obtained.

[4] = target: T1, Human serum albumin (HSA) (Homo sapiens, UniProt P02768); assay: Human serum albumin binding via high performance affinity chromatography (HPAC); format: in vitro ADME; conditions: Chiralpak HSA column, n = 1
T1 construct: purchased Daicel, Tokyo, Japan H13H-2433
Protocol: Human serum albumin (HSA) binding was determined via high performance affinity chromatography (HPAC), according to previously published protocols. Human serum albumin interaction was calculated according to the retention time (n = 1) of our compounds on a Chiralpak HSA column in dependence of nine reference compounds with known HSA interaction.
Human serum albumin binding was determined via high performance affinity chromatography. Therefore, a Chiralpak HSA column (50 × 3 mm, 5 µm, H13H-2433, Daicel, Tokyo, Japan) was used at a constant flow rate of 0.5 ml/min at room temperature. Mobile phase A consisted of a freshly prepared aqueous solution of NH4OAc (pH = 6.9, 50 mM) and mobile phase B of isopropanol. Calibration of the column was performed daily prior to experiments, by determining the retention times of nine reference substances displaying a HSA binding from 13 to 99%. HPLC gradient for all compounds tested was 100% A (0 to 3 min), followed by 80% A (3 to 40 min). All substances tested, were dissolved in a mixture of A/B (0.5 mg/mL, 1:1, v/v). OriginPro 2016G software (Northampton, United States) was used for non-linear regression and data evaluation.

[5] = tumor/adrenal, n=4, Table S3, read-out: Tumor-to-background ratio, Adrenal
[6] = tumor/blood, n=4, Table S3, read-out: Tumor-to-background ratio, Blood
[7] = tumor/bone, n=4, Table S3, read-out: Tumor-to-background ratio, Bone
[8] = tumor/heart, n=4, Table S3, read-out: Tumor-to-background ratio, Heart
[9] = tumor/intestine, n=4, Table S3, read-out: Tumor-to-background ratio, Intestine
[10] = tumor/kidney, n=4, Table S3, read-out: Tumor-to-background ratio, Kidney
[11] = tumor/liver, n=4, Table S3, read-out: Tumor-to-background ratio, Liver
[12] = tumor/lung, n=4, Table S3, read-out: Tumor-to-background ratio, Lung
[13] = tumor/muscle, n=4, Table S3, read-out: Tumor-to-background ratio, Muscle
[14] = tumor/pancreas, n=4, Table S3, read-out: Tumor-to-background ratio, Pancreas
[15] = tumor/spleen, n=4, Table S3, read-out: Tumor-to-background ratio, Spleen
[16] = tumor/stomach, n=4, Table S3, read-out: Tumor-to-background ratio, Stomach
[17] = adrenal, n=4, mean ± SD, read-out: Biodistribution, Adrenal
[18] = blood, n=4, mean ± SD, read-out: Biodistribution, Blood
[19] = bone, n=4, mean ± SD, read-out: Biodistribution, Bone
[20] = heart, n=4, mean ± SD, read-out: Biodistribution, Heart
[21] = intestine, n=4, mean ± SD, read-out: Biodistribution, Intestine
[22] = kidney, n=4, mean ± SD, read-out: Biodistribution, Kidney
[23] = liver, n=4, mean ± SD, read-out: Biodistribution, Liver
[24] = lung, n=4, mean ± SD, read-out: Biodistribution, Lung
[25] = muscle, n=4, mean ± SD, read-out: Biodistribution, Muscle
[26] = pancreas, n=4, mean ± SD, read-out: Biodistribution, Pancreas
[27] = spleen, n=4, mean ± SD, read-out: Biodistribution, Spleen
[28] = stomach, n=4, mean ± SD, read-out: Biodistribution, Stomach
[29] = tumor (AR42J xenograft), n=4, mean ± SD, read-out: Biodistribution, Tumor (AR42J xenograft)

T1 sequence (P02768 25-609): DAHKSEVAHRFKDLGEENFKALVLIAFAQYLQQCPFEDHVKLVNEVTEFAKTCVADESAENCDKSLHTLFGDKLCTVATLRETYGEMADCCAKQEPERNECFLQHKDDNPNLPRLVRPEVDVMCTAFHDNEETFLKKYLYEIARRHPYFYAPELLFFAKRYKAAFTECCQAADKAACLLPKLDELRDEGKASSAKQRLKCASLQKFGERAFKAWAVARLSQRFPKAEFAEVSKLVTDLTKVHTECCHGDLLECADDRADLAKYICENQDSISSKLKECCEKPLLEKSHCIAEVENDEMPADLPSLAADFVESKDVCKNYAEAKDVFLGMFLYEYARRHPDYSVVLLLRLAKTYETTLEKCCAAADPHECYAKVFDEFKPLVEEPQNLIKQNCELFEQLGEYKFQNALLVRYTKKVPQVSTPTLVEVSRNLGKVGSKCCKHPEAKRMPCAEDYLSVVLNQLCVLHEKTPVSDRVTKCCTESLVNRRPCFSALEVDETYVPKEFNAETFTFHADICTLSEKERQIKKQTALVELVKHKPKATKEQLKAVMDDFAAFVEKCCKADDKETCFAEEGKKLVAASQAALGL

| Structure (SMILES) | tissue to tissue ratio at 24 h [1, 5] | tissue to tissue ratio at 24 h [1, 6] | tissue to tissue ratio at 24 h [1, 7] | tissue to tissue ratio at 24 h [1, 8] | tissue to tissue ratio at 24 h [1, 9] | tissue to tissue ratio at 24 h [1, 10] | tissue to tissue ratio at 24 h [1, 11] | tissue to tissue ratio at 24 h [1, 12] | tissue to tissue ratio at 24 h [1, 13] | tissue to tissue ratio at 24 h [1, 14] | tissue to tissue ratio at 24 h [1, 15] | tissue to tissue ratio at 24 h [1, 16] | tissue uptake at 24 h [1, 17] | tissue uptake at 24 h [1, 18] | tissue uptake at 24 h [1, 19] | tissue uptake at 24 h [1, 20] | tissue uptake at 24 h [1, 21] | tissue uptake at 24 h [1, 22] | tissue uptake at 24 h [1, 23] | tissue uptake at 24 h [1, 24] | other results |
| --- | --- | --- | --- | --- | --- | --- | --- | --- | --- | --- | --- | --- | --- | --- | --- | --- | --- | --- | --- | --- | --- |
| CCCC[C@@H](C(=O)N[C@@H](CC(=O)O)C(=O)N[C@@H](Cc1cccc2ccccc12)C(N)=O)N(C)C(=O)[C@H](Cc1c[nH]c2ccccc12)NC(=O)CCOCCOCCOCCOCCNC(=O)CC[C@@H](NC(=O)CCOCCOCCOCCOCCOCCOCCOCCOCCNC(=O)CC[C@@H](NC(=O)[C@@H](CNC(=O)c1ccc([Si](F)(C(C)(C)C)C(C)(C)C)cc1)NC(=O)CN1CCN(CC(=O)O)CCN(CC(=O)O)CCN(CC(=O)O)CC1)C(=O)O)C(=O)O [[^nat/177Lu]Lu-DOTA-rhCCK-70, DOTA-D-Dap(p-SiFA)-D-γ-Glu-(PEG)7-D-γ-Glu-(PEG)3-Trp-(N-Me)Nle-Asp-1-Nal-NH2, metal not drawn] | 20.5 ± 8.5 | 143 ± 49 | 9.48 ± 8.05 | 55.4 ± 13.4 | 27.4 ± 7.7 | 1.44 ± 0.12 | 4.26 ± 1.7 | 33.4 ± 8.53 | 276 ± 189 | 55.2 ± 19.6 | 6.95 ± 2.17 | 1.97 ± 0.24 | 0.55 ± 0.46 %ID/g | 0.1 ± 0.04 %ID/g | 2.4 ± 1.5 %ID/g | 0.23 ± 0.05 %ID/g | 0.48 ± 0.13 %ID/g | 8.4 ± 0.8 %ID/g | 3.5 ± 1.7 %ID/g | 0.39 ± 0.12 %ID/g | tissue to tissue ratio at 24 h ([1]; tumor/kidney, read-out: tumor-to-kidney ratio): 1.4 ± 0.1; tissue to tissue ratio at 24 h ([1]; tumor/stomach, read-out: tumor-to-stomach ratio): 2 ± 0.2; tissue uptake at 24 h ([1]; bone, depending on 177Lu-batch, read-out: activity levels in the bone, range observed (correlating with free lutetium-177)): 0.5 to 4.3 %ID/g; tissue uptake at 24 h [1, 25]: 0.06 ± 0.03 %ID/g; tissue uptake at 24 h [1, 26]: 0.24 ± 0.08 %ID/g; tissue uptake at 24 h [1, 27]: 1.9 ± 0.6 %ID/g; tissue uptake at 24 h [1, 28]: 6.2 ± 0.9 %ID/g; tissue uptake at 24 h [1, 29]: 12 ± 0.8 %ID/g; decrease of activity levels in the tumor compared to [177Lu]Lu-DOTA-rhCCK-18 [2]: 2 fold; tumor-to-kidney ratio [2]: 1.45 ± 0.12; Biodistribution, Kidney ([2]; 100 pmol, n=4, mean ± SD): 8.37 ± 0.78 %ID/g; Biodistribution, Liver ([2]; 100 pmol, n=4, mean ± SD): 3.48 ± 1.66 %ID/g; Biodistribution, Spleen ([2]; 100 pmol, n=4, mean ± SD): 1.92 ± 0.60 %ID/g; Biodistribution, Stomach ([2]; 100 pmol, n=4, mean ± SD): 6.21 ± 0.85 %ID/g; reduction of kidney accumulation and retention compared to [177Lu]Lu-DOTA-rhCCK-18 [2]: 16 fold; logD [3]: -1.67; HSA binding [4]: 89.3% |
| CCCC[C@@H](C(=O)N[C@@H](CC(=O)O)C(=O)N[C@@H](Cc1cccc2ccccc12)C(N)=O)N(C)C(=O)[C@H](Cc1c[nH]c2ccccc12)NC(=O)CCOCCOCCOCCOCCNC(=O)CC[C@@H](NC(=O)CCOCCOCCOCCOCCOCCNC(=O)CC[C@@H](NC(=O)[C@@H](CNC(=O)C[N+](C)(C)Cc1ccc([Si](F)(C(C)(C)C)C(C)(C)C)cc1)NC(=O)CN1CCN(CC(=O)O)CCN(CC(=O)O)CCN(CC(=O)O)CC1)C(=O)O)C(=O)O [[^nat/177Lu]Lu-DOTA-rhCCK-91, DOTA-D-Dap(SiFAlin)-D-γ-Glu-(PEG)4-D-γ-Glu-(PEG)3-Trp-(N-Me)Nle-Asp-1-Nal-NH2, metal not drawn] | 17.3 ± 1.9 | 185 ± 32 | 11.8 ± 0.72 | 25.3 ± 5.2 | 12.3 ± 5.1 | 1.14 ± 0.12 | 3.8 ± 0.37 | 29.3 ± 4.2 | 147 ± 65 | 8.98 ± 2.1 | 7.35 ± 0.75 | 1.95 ± 0.27 | 0.44 ± 0.09 %ID/g | 0.04 ± 0.01 %ID/g | 0.64 ± 0.12 %ID/g | 0.31 ± 0.07 %ID/g | 0.68 ± 0.16 %ID/g | 6.6 ± 0.5 %ID/g | 2 ± 0.1 %ID/g | 0.26 ± 0.05 %ID/g | tissue uptake at 24 h [1, 25]: 0.06 ± 0.01 %ID/g; tissue uptake at 24 h [1, 26]: 0.9 ± 0.32 %ID/g; tissue uptake at 24 h [1, 27]: 1 ± 0.3 %ID/g; tissue uptake at 24 h [1, 28]: 4 ± 1.2 %ID/g; tissue uptake at 24 h [1, 29]: 7.5 ± 1 %ID/g; decrease of activity levels in the tumor compared to [177Lu]Lu-DOTA-rhCCK-18 [2]: three; Biodistribution, Kidney ([2]; 100 pmol, n=4, mean ± SD): 6.58 ± 0.53 %ID/g; Biodistribution, Liver ([2]; 100 pmol, n=4, mean ± SD): 1.96 ± 0.08 %ID/g; Biodistribution, Spleen ([2]; 100 pmol, n=4, mean ± SD): 1.04 ± 0.26 %ID/g; Biodistribution, Stomach ([2]; 100 pmol, n=4, mean ± SD): 3.99 ± 1.16 %ID/g; Biodistribution, Tumor (AR42J xenograft) ([2]; 100 pmol, n=4, mean ± SD): 7.47 ± 1.01 %ID/g; reduction of kidney accumulation and retention compared to [177Lu]Lu-DOTA-rhCCK-18 [2]: 20 fold; logD [3]: -1.66 ± 0.08; HSA binding [4]: 90.0% |
